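Values below derive from 48-hour exposures of cells grown in 96-well plates, with endpoints linearly interpolated between the two concentrations bracketing the appropriate inhibition level. Abbreviation: GI50, concentration required for 50% inhibition of growth. At the TGI there is no net growth.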
Legend:
Assay in all cases: inhibition of tumour cell growth, NCI panel, 48 h
NCI-H226 lung = tested on: NCI-H226 lung
NCI-H23 lung = tested on: NCI-H23 lung
NCI-H460 lung = tested on: NCI-H460 lung
NCI-H522 lung = tested on: NCI-H522 lung
NCI/ADR-RES ovarian = tested on: NCI/ADR-RES ovarian
OVCAR-3 ovarian = tested on: OVCAR-3 ovarian
OVCAR-4 ovarian = tested on: OVCAR-4 ovarian
OVCAR-5 ovarian = tested on: OVCAR-5 ovarian
OVCAR-8 ovarian = tested on: OVCAR-8 ovarian
PC-3 prostate = tested on: PC-3 prostate
RPMI-8226 leukemia = tested on: RPMI-8226 leukemia
RXF 393 renal = tested on: RXF 393 renal
SF-268 CNS = tested on: SF-268 CNS
SF-295 CNS = tested on: SF-295 CNS
SF-539 CNS = tested on: SF-539 CNS
SK-MEL-2 melanoma = tested on: SK-MEL-2 melanoma
SK-MEL-28 melanoma = tested on: SK-MEL-28 melanoma
SK-MEL-5 melanoma = tested on: SK-MEL-5 melanoma
SK-OV-3 ovarian = tested on: SK-OV-3 ovarian
SN12C renal = tested on: SN12C renal
SNB-19 CNS = tested on: SNB-19 CNS
SNB-75 CNS = tested on: SNB-75 CNS
SR leukemia = tested on: SR leukemia
SW-620 colon = tested on: SW-620 colon
T-47D breast = tested on: T-47D breast
TK-10 renal = tested on: TK-10 renal
U251 CNS = tested on: U251 CNS
UACC-257 melanoma = tested on: UACC-257 melanoma
UACC-62 melanoma = tested on: UACC-62 melanoma
UO-31 renal = tested on: UO-31 renal

Q: Which results are given for `C#CCN(C)CCCOc1ccc(N(CC)C(=O)c2cc(C(C)C)c(O)cc2O)cc1Cl`?
A: TGI (NCI-H226 lung): 17900 nM; GI50 (NCI-H23 lung): 346 nM; TGI (NCI-H23 lung): 13900 nM; GI50 (NCI-H460 lung): 68.7 nM; TGI (NCI-H460 lung): 10900 nM; GI50 (NCI-H522 lung): 121 nM; TGI (NCI-H522 lung): 5480 nM; GI50 (NCI/ADR-RES ovarian): 339 nM; TGI (NCI/ADR-RES ovarian): 7320 nM; GI50 (OVCAR-3 ovarian): 595 nM; TGI (OVCAR-3 ovarian): 14900 nM; GI50 (OVCAR-4 ovarian): 1630 nM; TGI (OVCAR-4 ovarian): 19400 nM; GI50 (OVCAR-5 ovarian): 482 nM; TGI (OVCAR-5 ovarian): 16000 nM; GI50 (OVCAR-8 ovarian): 219 nM; TGI (OVCAR-8 ovarian): 15600 nM; GI50 (PC-3 prostate): 232 nM; TGI (PC-3 prostate): 14700 nM; GI50 (RPMI-8226 leukemia): 294 nM; TGI (RPMI-8226 leukemia): 3170 nM; GI50 (RXF 393 renal): 917 nM; TGI (RXF 393 renal): 12500 nM; GI50 (SF-268 CNS): 1660 nM; TGI (SF-268 CNS): 23900 nM; GI50 (SF-295 CNS): 384 nM; TGI (SF-295 CNS): 12600 nM; GI50 (SF-539 CNS): 361 nM; TGI (SF-539 CNS): 12800 nM; GI50 (SK-MEL-2 melanoma): 979 nM; TGI (SK-MEL-2 melanoma): 15500 nM; GI50 (SK-MEL-28 melanoma): 413 nM; TGI (SK-MEL-28 melanoma): 12700 nM; GI50 (SK-MEL-5 melanoma): 397 nM; TGI (SK-MEL-5 melanoma): 1790 nM; GI50 (SK-OV-3 ovarian): 52.1 nM; TGI (SK-OV-3 ovarian): 12400 nM; GI50 (SN12C renal): 105 nM; TGI (SN12C renal): 8280 nM; GI50 (SNB-19 CNS): 430 nM; TGI (SNB-19 CNS): 13400 nM; GI50 (SNB-75 CNS): 947 nM; TGI (SNB-75 CNS): 16100 nM; GI50 (SR leukemia): 48.3 nM; TGI (SR leukemia): 8500 nM; GI50 (SW-620 colon): 192 nM; TGI (SW-620 colon): 13800 nM; GI50 (T-47D breast): 88.8 nM; TGI (T-47D breast): 11900 nM; GI50 (TK-10 renal): 195 nM; TGI (TK-10 renal): 12300 nM; GI50 (U251 CNS): 399 nM; TGI (U251 CNS): 15100 nM; GI50 (UACC-257 melanoma): 434 nM; TGI (UACC-257 melanoma): 11400 nM; GI50 (UACC-62 melanoma): 174 nM; TGI (UACC-62 melanoma): 793 nM; GI50 (UO-31 renal): 156 nM; TGI (UO-31 renal): 13200 nM

Source: PubChem BioAssay (NCI)
